Assay results published in the kinase profiling compilation of Christmann-Franck et al. (2016).

The molecules below were run against PRKACG (human) (UniProt P22612) (assay: radiometric filter-binding kinase assay, Kinase HotSpot). Conditions: compound 0.5 µM; ATP 10 µM.

Row | SMILES | residual activity
1 | N#Cc1c(NC(=O)c2cccc3ccccc23)sc2c1CCCC2 | 111%
2 | COc1cc2c(N3CCN(C(=O)Nc4ccc(OC(C)C)cc4)CC3)ncnc2cc1OCCCN1CCCCC1 | 108%

What follows are molecules tested against EPHA7 (human) (UniProt Q15375) in the same assay as above. Conditions: compound 0.5 µM; ATP 10 µM.

Row | SMILES | residual activity
3 | COc1cc2c(N3CCN(C(=O)Nc4ccc(OC(C)C)cc4)CC3)ncnc2cc1OCCCN1CCCCC1 | 97.5%
4 | O=c1cc(N2CCOCC2)oc2c(-c3ccccc3)cccc12 | 102%
5 | Nc1ncnc2c1cnn2-c1ccccc1 | 99.2%

What follows are molecules tested against NEK9 (human) (UniProt Q8TD19) in the same assay as above. Conditions: compound 0.5 µM; ATP 10 µM.

Row | SMILES | residual activity
6 | N#Cc1c(NC(=O)c2cccc3ccccc23)sc2c1CCCC2 | 96%
7 | COc1cc2c(N3CCN(C(=O)Nc4ccc(OC(C)C)cc4)CC3)ncnc2cc1OCCCN1CCCCC1 | 97.2%
8 | O=c1cc(N2CCOCC2)oc2c(-c3ccccc3)cccc12 | 101%
9 | Nc1ncnc2c1cnn2-c1ccccc1 | 110%

These molecules were tested against DSTYK (human) (UniProt Q6XUX3) in the same assay as above. Conditions: compound 0.5 µM; ATP 10 µM.

Row | SMILES | residual activity
10 | N#Cc1c(NC(=O)c2cccc3ccccc23)sc2c1CCCC2 | 100%
11 | COc1cc2c(N3CCN(C(=O)Nc4ccc(OC(C)C)cc4)CC3)ncnc2cc1OCCCN1CCCCC1 | 92.7%
12 | O=c1cc(N2CCOCC2)oc2c(-c3ccccc3)cccc12 | 113%
13 | Nc1ncnc2c1cnn2-c1ccccc1 | 94.5%

Each molecule was assayed against MINK1 (human) (UniProt Q8N4C8) in the same assay as above. Conditions: compound 0.5 µM; ATP 10 µM.
Chain of MINK1 (human) (Q8N4C8 whole entry, looked up): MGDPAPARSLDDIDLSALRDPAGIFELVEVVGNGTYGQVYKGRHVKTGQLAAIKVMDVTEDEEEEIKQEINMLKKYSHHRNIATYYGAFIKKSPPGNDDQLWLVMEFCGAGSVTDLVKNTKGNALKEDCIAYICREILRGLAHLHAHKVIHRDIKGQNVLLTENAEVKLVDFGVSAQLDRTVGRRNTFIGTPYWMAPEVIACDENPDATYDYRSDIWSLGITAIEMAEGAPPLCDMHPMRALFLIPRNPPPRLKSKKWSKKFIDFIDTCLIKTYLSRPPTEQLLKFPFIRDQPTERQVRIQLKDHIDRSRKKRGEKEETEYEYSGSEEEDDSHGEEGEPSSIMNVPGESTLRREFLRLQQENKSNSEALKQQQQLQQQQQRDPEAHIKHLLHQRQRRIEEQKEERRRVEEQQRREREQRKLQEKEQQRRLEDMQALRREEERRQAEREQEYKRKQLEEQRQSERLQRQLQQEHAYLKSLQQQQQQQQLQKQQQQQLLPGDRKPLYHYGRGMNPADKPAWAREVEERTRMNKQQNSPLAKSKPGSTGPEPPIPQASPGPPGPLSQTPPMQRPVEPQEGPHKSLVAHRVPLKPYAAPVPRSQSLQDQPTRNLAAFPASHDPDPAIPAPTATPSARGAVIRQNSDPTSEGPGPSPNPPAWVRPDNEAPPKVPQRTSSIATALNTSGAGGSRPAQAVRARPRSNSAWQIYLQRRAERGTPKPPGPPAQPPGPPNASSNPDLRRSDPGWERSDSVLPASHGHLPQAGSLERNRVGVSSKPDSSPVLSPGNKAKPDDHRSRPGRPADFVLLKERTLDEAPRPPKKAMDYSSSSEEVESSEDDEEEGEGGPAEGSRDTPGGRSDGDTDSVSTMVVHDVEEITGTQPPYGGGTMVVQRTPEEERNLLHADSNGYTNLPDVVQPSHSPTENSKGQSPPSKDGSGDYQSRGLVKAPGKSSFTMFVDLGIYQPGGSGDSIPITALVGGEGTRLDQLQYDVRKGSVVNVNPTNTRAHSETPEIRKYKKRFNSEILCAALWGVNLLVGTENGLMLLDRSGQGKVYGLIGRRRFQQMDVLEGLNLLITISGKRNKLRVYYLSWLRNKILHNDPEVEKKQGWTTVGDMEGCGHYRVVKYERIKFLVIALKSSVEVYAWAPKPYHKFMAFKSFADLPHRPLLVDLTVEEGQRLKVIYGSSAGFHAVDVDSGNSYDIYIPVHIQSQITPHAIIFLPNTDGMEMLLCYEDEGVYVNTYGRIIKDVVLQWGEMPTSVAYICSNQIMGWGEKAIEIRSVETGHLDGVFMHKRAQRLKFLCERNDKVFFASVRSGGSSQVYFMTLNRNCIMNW

Row | SMILES | residual activity
14 | N#Cc1c(NC(=O)c2cccc3ccccc23)sc2c1CCCC2 | 95.2%
15 | COc1cc2c(N3CCN(C(=O)Nc4ccc(OC(C)C)cc4)CC3)ncnc2cc1OCCCN1CCCCC1 | 99%
16 | O=c1cc(N2CCOCC2)oc2c(-c3ccccc3)cccc12 | 94.6%
17 | Nc1ncnc2c1cnn2-c1ccccc1 | 88.9%

What follows are molecules tested against AXL (human) (UniProt P30530) in the same assay as above. Conditions: compound 0.5 µM; ATP 10 µM.

Row | SMILES | residual activity
18 | N#Cc1c(NC(=O)c2cccc3ccccc23)sc2c1CCCC2 | 106%
19 | COc1cc2c(N3CCN(C(=O)Nc4ccc(OC(C)C)cc4)CC3)ncnc2cc1OCCCN1CCCCC1 | 99%
20 | O=c1cc(N2CCOCC2)oc2c(-c3ccccc3)cccc12 | 110%
21 | Nc1ncnc2c1cnn2-c1ccccc1 | 110%

Each molecule was assayed against CDK9 CCNT1 (human) (UniProt P50750+O60563) in the same assay as above. Conditions: compound 0.5 µM; ATP 10 µM.
Chain of CDK9 CCNT1 (human) (O60563 whole entry, looked up): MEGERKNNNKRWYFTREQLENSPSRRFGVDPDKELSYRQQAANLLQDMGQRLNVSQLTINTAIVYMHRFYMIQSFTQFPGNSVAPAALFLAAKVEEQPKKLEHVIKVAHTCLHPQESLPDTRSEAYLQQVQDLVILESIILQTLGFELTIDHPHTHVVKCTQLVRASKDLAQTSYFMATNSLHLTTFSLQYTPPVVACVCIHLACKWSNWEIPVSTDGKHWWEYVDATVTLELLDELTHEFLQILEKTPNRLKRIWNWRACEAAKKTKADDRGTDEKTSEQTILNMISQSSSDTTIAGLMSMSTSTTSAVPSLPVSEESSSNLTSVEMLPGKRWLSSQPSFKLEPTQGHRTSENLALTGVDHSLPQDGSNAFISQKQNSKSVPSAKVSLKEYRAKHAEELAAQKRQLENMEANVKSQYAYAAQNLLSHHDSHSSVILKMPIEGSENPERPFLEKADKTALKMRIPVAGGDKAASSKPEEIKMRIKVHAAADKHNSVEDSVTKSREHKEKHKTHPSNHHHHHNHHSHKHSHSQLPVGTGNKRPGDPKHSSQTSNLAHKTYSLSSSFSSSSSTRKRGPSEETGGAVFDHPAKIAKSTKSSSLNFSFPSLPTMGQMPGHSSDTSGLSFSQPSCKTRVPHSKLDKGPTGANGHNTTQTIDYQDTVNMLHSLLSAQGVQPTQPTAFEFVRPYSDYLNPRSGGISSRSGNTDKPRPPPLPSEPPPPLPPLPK
Chain of CDK9 CCNT1 (human) (P50750 whole entry, looked up): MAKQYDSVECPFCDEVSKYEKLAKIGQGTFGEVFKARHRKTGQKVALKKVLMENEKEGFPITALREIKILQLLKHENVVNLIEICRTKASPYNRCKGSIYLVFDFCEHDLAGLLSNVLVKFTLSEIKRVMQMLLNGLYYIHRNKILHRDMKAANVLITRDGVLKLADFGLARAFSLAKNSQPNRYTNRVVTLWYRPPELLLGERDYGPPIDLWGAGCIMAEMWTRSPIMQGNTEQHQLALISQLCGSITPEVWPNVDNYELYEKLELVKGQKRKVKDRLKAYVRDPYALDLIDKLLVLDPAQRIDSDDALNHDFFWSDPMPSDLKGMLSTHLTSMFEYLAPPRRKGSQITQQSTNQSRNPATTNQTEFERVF

Row | SMILES | residual activity
22 | N#Cc1c(NC(=O)c2cccc3ccccc23)sc2c1CCCC2 | 100%
23 | CN[C@@H]1C[C@H]2O[C@@](C)([C@@H]1OC)n1c3ccccc3c3c4c(c5c6ccccc6n2c5c31)C(=O)NC4 | 1.38%
24 | COc1cc2c(N3CCN(C(=O)Nc4ccc(OC(C)C)cc4)CC3)ncnc2cc1OCCCN1CCCCC1 | 100%
25 | O=c1cc(N2CCOCC2)oc2c(-c3ccccc3)cccc12 | 103%
26 | Nc1ncnc2c1cnn2-c1ccccc1 | 109%

These molecules were tested against CAMK4 (human) (UniProt Q16566) in the same assay as above. Conditions: compound 0.5 µM; ATP 10 µM.

Row | SMILES | residual activity
27 | N#Cc1c(NC(=O)c2cccc3ccccc23)sc2c1CCCC2 | 108%
28 | COc1cc2c(N3CCN(C(=O)Nc4ccc(OC(C)C)cc4)CC3)ncnc2cc1OCCCN1CCCCC1 | 99.3%
29 | O=c1cc(N2CCOCC2)oc2c(-c3ccccc3)cccc12 | 104%
30 | Nc1ncnc2c1cnn2-c1ccccc1 | 104%

Each molecule was assayed against CHEK1 (human) (UniProt O14757) in the same assay as above. Conditions: compound 0.5 µM; ATP 10 µM.

Row | SMILES | residual activity
31 | N#Cc1c(NC(=O)c2cccc3ccccc23)sc2c1CCCC2 | 104%
32 | CN[C@@H]1C[C@H]2O[C@@](C)([C@@H]1OC)n1c3ccccc3c3c4c(c5c6ccccc6n2c5c31)C(=O)NC4 | 1.63%
33 | COc1cc2c(N3CCN(C(=O)Nc4ccc(OC(C)C)cc4)CC3)ncnc2cc1OCCCN1CCCCC1 | 108%
34 | O=c1cc(N2CCOCC2)oc2c(-c3ccccc3)cccc12 | 104%
35 | Nc1ncnc2c1cnn2-c1ccccc1 | 92.5%

What follows are molecules tested against EGFR (human) (UniProt P00533) in the same assay as above. Conditions: compound 0.5 µM; ATP 10 µM.

Row | SMILES | residual activity
36 | Nc1ncnc2c1cnn2-c1ccccc1 | 73%

What follows are molecules tested against PTK6 (human) (UniProt Q13882) in the same assay as above. Conditions: compound 0.5 µM; ATP 10 µM.

Row | SMILES | residual activity
37 | N#Cc1c(NC(=O)c2cccc3ccccc23)sc2c1CCCC2 | 89.8%
38 | COc1cc2c(N3CCN(C(=O)Nc4ccc(OC(C)C)cc4)CC3)ncnc2cc1OCCCN1CCCCC1 | 92.9%
39 | O=c1cc(N2CCOCC2)oc2c(-c3ccccc3)cccc12 | 96%
40 | Nc1ncnc2c1cnn2-c1ccccc1 | 92%

What follows are molecules tested against MAP4K5 (human) (UniProt Q9Y4K4) in the same assay as above. Conditions: compound 0.5 µM; ATP 10 µM.
Chain of MAP4K5 (human) (Q9Y4K4 whole entry, looked up): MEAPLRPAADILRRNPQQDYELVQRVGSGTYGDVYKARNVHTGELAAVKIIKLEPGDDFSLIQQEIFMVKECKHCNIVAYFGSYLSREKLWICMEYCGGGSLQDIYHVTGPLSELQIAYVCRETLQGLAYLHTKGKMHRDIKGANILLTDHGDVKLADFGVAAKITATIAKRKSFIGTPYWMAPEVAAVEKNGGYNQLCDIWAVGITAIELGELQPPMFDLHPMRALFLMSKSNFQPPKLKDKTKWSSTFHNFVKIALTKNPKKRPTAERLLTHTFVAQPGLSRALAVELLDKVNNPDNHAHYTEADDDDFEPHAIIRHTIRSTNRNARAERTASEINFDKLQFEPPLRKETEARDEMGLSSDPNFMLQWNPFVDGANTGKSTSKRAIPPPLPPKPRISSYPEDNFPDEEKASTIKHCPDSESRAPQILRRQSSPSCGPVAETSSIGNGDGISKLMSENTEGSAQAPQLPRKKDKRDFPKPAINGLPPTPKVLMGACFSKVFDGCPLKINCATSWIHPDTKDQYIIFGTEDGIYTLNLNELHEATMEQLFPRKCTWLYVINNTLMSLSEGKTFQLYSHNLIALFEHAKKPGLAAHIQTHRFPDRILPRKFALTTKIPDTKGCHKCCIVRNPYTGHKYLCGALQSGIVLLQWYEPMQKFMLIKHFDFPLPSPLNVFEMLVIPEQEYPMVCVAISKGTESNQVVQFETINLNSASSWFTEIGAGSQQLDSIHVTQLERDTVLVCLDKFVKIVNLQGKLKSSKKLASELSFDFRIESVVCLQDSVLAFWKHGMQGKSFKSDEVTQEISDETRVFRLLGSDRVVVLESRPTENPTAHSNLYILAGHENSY

Row | SMILES | residual activity
41 | N#Cc1c(NC(=O)c2cccc3ccccc23)sc2c1CCCC2 | 93.8%
42 | COc1cc2c(N3CCN(C(=O)Nc4ccc(OC(C)C)cc4)CC3)ncnc2cc1OCCCN1CCCCC1 | 87.6%
43 | O=c1cc(N2CCOCC2)oc2c(-c3ccccc3)cccc12 | 92.2%
44 | Nc1ncnc2c1cnn2-c1ccccc1 | 87.2%

The molecules below were run against MYLK2 (human) (UniProt Q9H1R3) in the same assay as above. Conditions: compound 0.5 µM; ATP 10 µM.

Row | SMILES | residual activity
45 | N#Cc1c(NC(=O)c2cccc3ccccc23)sc2c1CCCC2 | 101%
46 | COc1cc2c(N3CCN(C(=O)Nc4ccc(OC(C)C)cc4)CC3)ncnc2cc1OCCCN1CCCCC1 | 101%
47 | O=c1cc(N2CCOCC2)oc2c(-c3ccccc3)cccc12 | 102%
48 | Nc1ncnc2c1cnn2-c1ccccc1 | 99.9%

The molecules below were run against BMX (human) (UniProt P51813) in the same assay as above. Conditions: compound 0.5 µM; ATP 10 µM.

Row | SMILES | residual activity
49 | N#Cc1c(NC(=O)c2cccc3ccccc23)sc2c1CCCC2 | 101%
50 | COc1cc2c(N3CCN(C(=O)Nc4ccc(OC(C)C)cc4)CC3)ncnc2cc1OCCCN1CCCCC1 | 109%
51 | O=c1cc(N2CCOCC2)oc2c(-c3ccccc3)cccc12 | 96.9%
52 | Nc1ncnc2c1cnn2-c1ccccc1 | 96.8%

What follows are molecules tested against CDK2 CCNA2 (human) (UniProt P24941+P20248) in the same assay as above. Conditions: compound 0.5 µM; ATP 10 µM.
Chain of CDK2 CCNA2 (human) (P20248 whole entry, looked up, other chains not shown): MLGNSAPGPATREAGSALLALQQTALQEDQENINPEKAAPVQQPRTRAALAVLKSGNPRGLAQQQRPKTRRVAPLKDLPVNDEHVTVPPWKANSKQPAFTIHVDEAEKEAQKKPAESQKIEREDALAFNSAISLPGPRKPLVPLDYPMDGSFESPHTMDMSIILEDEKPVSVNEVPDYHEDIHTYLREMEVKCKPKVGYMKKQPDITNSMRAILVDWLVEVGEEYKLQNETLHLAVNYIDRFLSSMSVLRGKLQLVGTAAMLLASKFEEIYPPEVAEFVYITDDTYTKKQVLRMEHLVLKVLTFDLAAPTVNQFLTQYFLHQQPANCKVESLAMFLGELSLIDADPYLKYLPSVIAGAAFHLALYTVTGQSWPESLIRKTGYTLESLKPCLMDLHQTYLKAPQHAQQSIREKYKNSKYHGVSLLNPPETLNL

Row | SMILES | residual activity
53 | N#Cc1c(NC(=O)c2cccc3ccccc23)sc2c1CCCC2 | 100%
54 | COc1cc2c(N3CCN(C(=O)Nc4ccc(OC(C)C)cc4)CC3)ncnc2cc1OCCCN1CCCCC1 | 93.3%
55 | O=c1cc(N2CCOCC2)oc2c(-c3ccccc3)cccc12 | 106%
56 | Nc1ncnc2c1cnn2-c1ccccc1 | 108%

These molecules were tested against IKBKE (human) (UniProt Q14164) in the same assay as above. Conditions: compound 0.5 µM; ATP 10 µM.
Chain of IKBKE (human) (Q14164 whole entry, looked up): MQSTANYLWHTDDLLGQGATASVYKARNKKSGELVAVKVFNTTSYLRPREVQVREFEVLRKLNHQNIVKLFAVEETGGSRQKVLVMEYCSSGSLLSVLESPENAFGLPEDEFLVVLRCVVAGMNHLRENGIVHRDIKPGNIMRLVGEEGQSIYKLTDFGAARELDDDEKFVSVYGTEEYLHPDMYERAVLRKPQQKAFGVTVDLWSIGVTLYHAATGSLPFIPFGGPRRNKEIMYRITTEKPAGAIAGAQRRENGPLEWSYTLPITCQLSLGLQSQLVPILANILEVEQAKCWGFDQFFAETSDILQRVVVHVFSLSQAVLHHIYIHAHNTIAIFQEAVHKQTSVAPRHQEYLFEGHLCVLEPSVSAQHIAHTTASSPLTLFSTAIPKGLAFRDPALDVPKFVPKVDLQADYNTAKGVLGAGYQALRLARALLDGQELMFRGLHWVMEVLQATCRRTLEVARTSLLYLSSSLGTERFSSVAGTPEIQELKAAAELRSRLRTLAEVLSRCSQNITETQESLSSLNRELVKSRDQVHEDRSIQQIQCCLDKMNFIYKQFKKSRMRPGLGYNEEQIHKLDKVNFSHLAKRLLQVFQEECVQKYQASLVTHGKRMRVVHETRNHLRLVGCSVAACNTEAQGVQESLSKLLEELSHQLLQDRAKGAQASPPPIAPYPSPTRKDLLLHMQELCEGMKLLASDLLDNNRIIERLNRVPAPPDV

Row | SMILES | residual activity
57 | N#Cc1c(NC(=O)c2cccc3ccccc23)sc2c1CCCC2 | 94.3%
58 | COc1cc2c(N3CCN(C(=O)Nc4ccc(OC(C)C)cc4)CC3)ncnc2cc1OCCCN1CCCCC1 | 96.2%
59 | O=c1cc(N2CCOCC2)oc2c(-c3ccccc3)cccc12 | 100%
60 | Nc1ncnc2c1cnn2-c1ccccc1 | 100%

The molecules below were run against DYRK1B (human) (UniProt Q9Y463) in the same assay as above. Conditions: compound 0.5 µM; ATP 10 µM.

Row | SMILES | residual activity
61 | N#Cc1c(NC(=O)c2cccc3ccccc23)sc2c1CCCC2 | 101%
62 | COc1cc2c(N3CCN(C(=O)Nc4ccc(OC(C)C)cc4)CC3)ncnc2cc1OCCCN1CCCCC1 | 97.9%
63 | O=c1cc(N2CCOCC2)oc2c(-c3ccccc3)cccc12 | 96.8%
64 | Nc1ncnc2c1cnn2-c1ccccc1 | 93%

The molecules below were run against ABL1 (human) (UniProt P00519) in the same assay as above. Conditions: compound 0.5 µM; ATP 10 µM.

Row | SMILES | residual activity
65 | N#Cc1c(NC(=O)c2cccc3ccccc23)sc2c1CCCC2 | 103%
66 | COc1cc2c(N3CCN(C(=O)Nc4ccc(OC(C)C)cc4)CC3)ncnc2cc1OCCCN1CCCCC1 | 104%
67 | O=c1cc(N2CCOCC2)oc2c(-c3ccccc3)cccc12 | 99.2%
68 | Nc1ncnc2c1cnn2-c1ccccc1 | 99.4%

Each molecule was assayed against PHKG2 (human) (UniProt P15735) in the same assay as above. Conditions: compound 0.5 µM; ATP 10 µM.

Row | SMILES | residual activity
69 | N#Cc1c(NC(=O)c2cccc3ccccc23)sc2c1CCCC2 | 101%
70 | CN[C@@H]1C[C@H]2O[C@@](C)([C@@H]1OC)n1c3ccccc3c3c4c(c5c6ccccc6n2c5c31)C(=O)NC4 | 3.42%
71 | COc1cc2c(N3CCN(C(=O)Nc4ccc(OC(C)C)cc4)CC3)ncnc2cc1OCCCN1CCCCC1 | 98.9%
72 | O=c1cc(N2CCOCC2)oc2c(-c3ccccc3)cccc12 | 97.2%
73 | Nc1ncnc2c1cnn2-c1ccccc1 | 94.1%

These molecules were tested against RAF1 (human) (UniProt P04049) in the same assay as above. Conditions: compound 0.5 µM; ATP 10 µM.
Chain of RAF1 (human) (P04049 whole entry, looked up): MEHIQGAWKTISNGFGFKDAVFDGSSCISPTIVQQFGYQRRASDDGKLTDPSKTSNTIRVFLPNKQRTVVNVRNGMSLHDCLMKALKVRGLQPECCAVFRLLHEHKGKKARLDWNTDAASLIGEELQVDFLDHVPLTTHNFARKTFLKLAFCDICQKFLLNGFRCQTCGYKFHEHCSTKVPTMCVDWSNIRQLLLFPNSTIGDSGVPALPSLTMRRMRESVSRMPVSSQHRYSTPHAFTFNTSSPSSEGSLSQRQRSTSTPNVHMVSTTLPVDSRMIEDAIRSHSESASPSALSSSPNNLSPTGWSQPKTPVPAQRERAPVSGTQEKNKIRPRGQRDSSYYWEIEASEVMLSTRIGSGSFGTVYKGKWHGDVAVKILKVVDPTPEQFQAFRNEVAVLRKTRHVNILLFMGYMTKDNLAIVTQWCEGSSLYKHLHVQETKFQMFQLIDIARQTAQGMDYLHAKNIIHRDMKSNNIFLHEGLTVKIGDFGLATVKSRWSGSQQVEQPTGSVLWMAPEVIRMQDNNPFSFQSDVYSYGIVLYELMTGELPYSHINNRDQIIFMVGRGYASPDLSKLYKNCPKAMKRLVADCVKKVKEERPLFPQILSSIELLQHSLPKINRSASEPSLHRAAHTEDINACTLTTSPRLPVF

Row | SMILES | residual activity
74 | N#Cc1c(NC(=O)c2cccc3ccccc23)sc2c1CCCC2 | 92.9%
75 | COc1cc2c(N3CCN(C(=O)Nc4ccc(OC(C)C)cc4)CC3)ncnc2cc1OCCCN1CCCCC1 | 96.7%
76 | O=c1cc(N2CCOCC2)oc2c(-c3ccccc3)cccc12 | 82.3%
77 | Nc1ncnc2c1cnn2-c1ccccc1 | 95.4%

These molecules were tested against MAPK14 (human) (UniProt Q16539) in the same assay as above. Conditions: compound 0.5 µM; ATP 10 µM.

Row | SMILES | residual activity
78 | N#Cc1c(NC(=O)c2cccc3ccccc23)sc2c1CCCC2 | 98.1%
79 | COc1cc2c(N3CCN(C(=O)Nc4ccc(OC(C)C)cc4)CC3)ncnc2cc1OCCCN1CCCCC1 | 94.1%
80 | O=c1cc(N2CCOCC2)oc2c(-c3ccccc3)cccc12 | 87.7%
81 | Nc1ncnc2c1cnn2-c1ccccc1 | 89.2%

Each molecule was assayed against STK38 (human) (UniProt Q15208) in the same assay as above. Conditions: compound 0.5 µM; ATP 10 µM.

Row | SMILES | residual activity
82 | N#Cc1c(NC(=O)c2cccc3ccccc23)sc2c1CCCC2 | 97.7%
